Assay results: PubChem BioAssay AID328 (DTP/NCI, 2004)
Values joined by “and” are separate entries in the source; they are usually repeats but may differ in a detail not shown here. Identical values can stand only once. Inconclusive results and toxic doses are left out.

Test system: BDF1 mice, P388 leukemia ip, median survival T/C
Test: NCI In Vivo Anticancer Drug Screen. Data for tumor model P388 Leukemia (intraperitoneal) in B6D2F1 (BDF1) mice
Details: endpoint: median survival time, higher = longer survival
How it was run: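 Reported as T/C, where T is the survival measurement in dosed animals and C the same measurement in vehicle controls.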

[1] = dose: 12.5 mg/kg/injection, schedule: Q01DX009 (ip), vehicle: Klucel (hydroxypropylcellulose) (HPC)
[2] = dose: 25.0 mg/kg/injection, schedule: Q01DX009 (ip), vehicle: Klucel (hydroxypropylcellulose) (HPC)
[3] = dose: 25.0 mg/kg/injection, schedule: Q04DX003 (ip), vehicle: Klucel (hydroxypropylcellulose) (HPC)
[4] = dose: 50.0 mg/kg/injection, schedule: Q01DX009 (ip), vehicle: Klucel (hydroxypropylcellulose) (HPC)
[5] = dose: 50.0 mg/kg/injection, schedule: Q04DX003 (ip), vehicle: Klucel (hydroxypropylcellulose) (HPC)
[6] = dose: 100.0 mg/kg/injection, schedule: Q01DX009 (ip), vehicle: Klucel (hydroxypropylcellulose) (HPC)
[7] = dose: 100.0 mg/kg/injection, schedule: Q04DX003 (ip), vehicle: Klucel (hydroxypropylcellulose) (HPC)
[8] = dose: 200.0 mg/kg/injection, schedule: Q01DX009 (ip), vehicle: Klucel (hydroxypropylcellulose) (HPC)
[9] = dose: 200.0 mg/kg/injection, schedule: Q04DX003 (ip), vehicle: Klucel (hydroxypropylcellulose) (HPC)
[10] = dose: 400.0 mg/kg/injection, schedule: Q01DX009 (ip), vehicle: Klucel (hydroxypropylcellulose) (HPC)
[11] = dose: 400.0 mg/kg/injection, schedule: Q04DX003 (ip), vehicle: Klucel (hydroxypropylcellulose) (HPC)
[12] = dose: 100.0 mg/kg/injection, schedule: Q01DX009 (ip), vehicle: saline with Tween-80
[13] = dose: 200.0 mg/kg/injection, schedule: Q01DX009 (ip), vehicle: saline with Tween-80
[14] = dose: 400.0 mg/kg/injection, schedule: Q01DX009 (ip), vehicle: saline with Tween-80

SMILES: NC(CSC(c1ccccc1)(c1ccccc1)c1ccc(F)cc1)C(=O)O (stereo unspecified)
- T/C (dose: 2.9 mg/kg/injection, schedule: Q01DX009 (ip), vehicle: Klucel (hydroxypropylcellulose) (HPC)): 107 % of control
- T/C (dose: 4.3 mg/kg/injection, schedule: Q01DX009 (ip), vehicle: Klucel (hydroxypropylcellulose) (HPC)): 123 % of control
- T/C [1]: 170 % of control
- T/C (dose: 23.0 mg/kg/injection, schedule: Q01DX009 (ip), vehicle: Klucel (hydroxypropylcellulose) (HPC)): 216 % of control
- T/C [2]: 227 % of control
- T/C [3]: 170 % of control
- T/C (dose: 35.0 mg/kg/injection, schedule: Q01DX009 (ip), vehicle: Klucel (hydroxypropylcellulose) (HPC)): 222 % of control
- T/C [4]: 255 % of control and 104 % of control and 209 % of control
- T/C [5]: 180 % of control
- T/C (dose: 75.0 mg/kg/injection, schedule: Q01DX009 (ip), vehicle: Klucel (hydroxypropylcellulose) (HPC)): 90 % of control
- T/C [6]: 194 % of control
- T/C [7]: 175 % of control and 185 % of control
- T/C [8]: 100 % of control
- T/C [9]: 285 % of control and 205 % of control

SMILES: O=NN(CCCl)C(=O)Nc1ccc(NC(=O)N(CCCl)N=O)cc1
- T/C (dose: 0.03 mg/kg/injection, schedule: Q04DX003 (ip), vehicle: Klucel (hydroxypropylcellulose) (HPC)): 100 % of control
- T/C (dose: 0.06 mg/kg/injection, schedule: Q04DX003 (ip), vehicle: Klucel (hydroxypropylcellulose) (HPC)): 108 % of control
- T/C (dose: 0.12 mg/kg/injection, schedule: Q01DX009 (ip), vehicle: Klucel (hydroxypropylcellulose) (HPC)): 111 % of control
- T/C (dose: 0.12 mg/kg/injection, schedule: Q04DX003 (ip), vehicle: Klucel (hydroxypropylcellulose) (HPC)): 108 % of control
- T/C (dose: 0.25 mg/kg/injection, schedule: Q01DX009 (ip), vehicle: Klucel (hydroxypropylcellulose) (HPC)): 177 % of control
- T/C (dose: 0.25 mg/kg/injection, schedule: Q04DX003 (ip), vehicle: Klucel (hydroxypropylcellulose) (HPC)): 150 % of control
- T/C (dose: 0.5 mg/kg/injection, schedule: Q01DX009 (ip), vehicle: Klucel (hydroxypropylcellulose) (HPC)): 222 % of control
- T/C (dose: 0.5 mg/kg/injection, schedule: Q04DX003 (ip), vehicle: Klucel (hydroxypropylcellulose) (HPC)): 154 % of control
- T/C (dose: 0.6 mg/kg/injection, schedule: Q04DX003 (ip), vehicle: Klucel (hydroxypropylcellulose) (HPC)): 117 % of control
- T/C (dose: 1.0 mg/kg/injection, schedule: Q01DX009 (ip), vehicle: Klucel (hydroxypropylcellulose) (HPC)): 94 % of control
- T/C (dose: 1.0 mg/kg/injection, schedule: Q04DX003 (ip), vehicle: Klucel (hydroxypropylcellulose) (HPC)): 204 % of control
- T/C (dose: 1.5 mg/kg/injection, schedule: Q01DX009 (ip), vehicle: Klucel (hydroxypropylcellulose) (HPC)): 254 % of control
- T/C (dose: 1.6 mg/kg/injection, schedule: Q04DX003 (ip), vehicle: Klucel (hydroxypropylcellulose) (HPC)): 152 % of control
- T/C (dose: 2.0 mg/kg/injection, schedule: Q04DX003 (ip), vehicle: Klucel (hydroxypropylcellulose) (HPC)): 186 % of control
- T/C (dose: 2.5 mg/kg/injection, schedule: Q04DX003 (ip), vehicle: Klucel (hydroxypropylcellulose) (HPC)): 160 % of control and 175 % of control
- T/C (dose: 3.0 mg/kg/injection, schedule: Q01DX009 (ip), vehicle: Klucel (hydroxypropylcellulose) (HPC)): 231 % of control
- T/C (dose: 3.0 mg/kg/injection, schedule: Q04DX003 (ip), vehicle: Klucel (hydroxypropylcellulose) (HPC)): 186 % of control
- T/C (dose: 4.0 mg/kg/injection, schedule: Q04DX003 (ip), vehicle: Klucel (hydroxypropylcellulose) (HPC)): 187 % of control
- T/C (dose: 6.0 mg/kg/injection, schedule: Q01DX009 (ip), vehicle: Klucel (hydroxypropylcellulose) (HPC)): 272 % of control
- T/C (dose: 6.0 mg/kg/injection, schedule: Q04DX003 (ip), vehicle: Klucel (hydroxypropylcellulose) (HPC)): 227 % of control and 187 % of control and 213 % of control
- T/C (dose: 9.0 mg/kg/injection, schedule: Q04DX003 (ip), vehicle: Klucel (hydroxypropylcellulose) (HPC)): 190 % of control
- T/C (dose: 12.0 mg/kg/injection, schedule: Q04DX003 (ip), vehicle: Klucel (hydroxypropylcellulose) (HPC)): 213 % of control
- T/C [1]: 300 % of control
- T/C (dose: 13.0 mg/kg/injection, schedule: Q04DX003 (ip), vehicle: Klucel (hydroxypropylcellulose) (HPC)): 231 % of control and 259 % of control
- T/C (dose: 20.0 mg/kg/injection, schedule: Q04DX003 (ip), vehicle: Klucel (hydroxypropylcellulose) (HPC)): 245 % of control
- T/C [2]: 300 % of control
- T/C [3]: 272 % of control
- T/C (dose: 30.0 mg/kg/injection, schedule: Q04DX003 (ip), vehicle: Klucel (hydroxypropylcellulose) (HPC)): 250 % of control and 272 % of control
- T/C (dose: 44.0 mg/kg/injection, schedule: Q04DX003 (ip), vehicle: Klucel (hydroxypropylcellulose) (HPC)): 250 % of control
- T/C [4]: 210 % of control
- T/C [5]: 254 % of control
- T/C (dose: 66.0 mg/kg/injection, schedule: Q04DX003 (ip), vehicle: Klucel (hydroxypropylcellulose) (HPC)): 241 % of control and 250 % of control
- T/C [7]: 233 % of control and 254 % of control and 260 % of control
- T/C (dose: 150.0 mg/kg/injection, schedule: Q01DX009 (ip), vehicle: Klucel (hydroxypropylcellulose) (HPC)): 115 % of control
- T/C (dose: 150.0 mg/kg/injection, schedule: Q04DX003 (ip), vehicle: Klucel (hydroxypropylcellulose) (HPC)): 175 % of control
- T/C [9]: 260 % of control and 272 % of control
- T/C [10]: 115 % of control
- T/C [11]: 234 % of control and 177 % of control
- T/C (dose: 600.0 mg/kg/injection, schedule: Q04DX003 (ip), vehicle: Klucel (hydroxypropylcellulose) (HPC)): 272 % of control

SMILES: CC(C)(C)SC(=O)C[Si](C)(C)C
- T/C (dose: 100.0 mg/kg/injection, schedule: Q04DX003 (ip), vehicle: saline with Tween-80): 113 % of control
- T/C (dose: 200.0 mg/kg/injection, schedule: Q04DX003 (ip), vehicle: saline with Tween-80): 123 % of control

SMILES: C#CC[N+](CCO)(CCO)CCCCCCCCCCCCCCCCCC
- T/C (dose: 3.13 mg/kg/injection, schedule: Q01DX009 (ip), vehicle: Klucel (hydroxypropylcellulose) (HPC)): 110 % of control
- T/C (dose: 6.25 mg/kg/injection, schedule: Q01DX009 (ip), vehicle: Klucel (hydroxypropylcellulose) (HPC)): 109 % of control
- T/C [1]: 113 % of control and 120 % of control

SMILES: NC1=NC(c2ccc(Cl)cc2)N(c2ccc(S(=O)(=O)Nc3ncccn3)cc2)C(N)=N1 (stereo unspecified)
- T/C (dose: 25.0 mg/kg/injection, schedule: Q04DX003 (ip), vehicle: saline sonified): 104 % of control
- T/C (dose: 50.0 mg/kg/injection, schedule: Q04DX003 (ip), vehicle: saline sonified): 104 % of control
- T/C (dose: 100.0 mg/kg/injection, schedule: Q04DX003 (ip), vehicle: saline sonified): 95 % of control

SMILES: NC(Cc1cccs1)C(=O)O (stereo unspecified)
- T/C [12]: 100 % of control
- T/C [13]: 110 % of control
- T/C [14]: 110 % of control

SMILES: CC(C)(C)c1cc(CO)cc(C(C)(C)C)c1O
- T/C [6]: 107 % of control
- T/C [7]: 113 % of control
- T/C [8]: 103 % of control
- T/C [9]: 118 % of control
- T/C [10]: 111 % of control
- T/C [11]: 100 % of control

SMILES: NC(=S)n1cccn1
- T/C (dose: 50.0 mg/kg/injection, schedule: Q01DX010 (ip), vehicle: water): 118 % of control

SMILES: CC(=O)OC(=O)C(Cc1ccccc1)NC(=O)C(N)CCCN=C(N)N (stereo unspecified)
- T/C (dose: 50.0 mg/kg/injection, schedule: Q01DX005 (ip), vehicle: saline with Tween-80): 98 % of control
- T/C (dose: 100.0 mg/kg/injection, schedule: Q01DX005 (ip), vehicle: saline with Tween-80): 103 % of control

SMILES: COc1ccc(OC)c2c1C(=O)c1ccccc1C2=O
- T/C (dose: 25.0 mg/kg/injection, schedule: Q01DX009 (ip), vehicle: saline with Tween-80): 100 % of control
- T/C (dose: 50.0 mg/kg/injection, schedule: Q01DX009 (ip), vehicle: saline with Tween-80): 105 % of control
- T/C [12]: 90 % of control
- T/C [13]: 106 % of control
- T/C [14]: 103 % of control

SMILES: C[N+]1=C2CCCC2=C(N)CC1
- T/C (dose: 6.25 mg/kg/injection, schedule: Q01DX009 (ip), vehicle: saline): 110 % of control
- T/C (dose: 12.5 mg/kg/injection, schedule: Q01DX009 (ip), vehicle: saline): 115 % of control
- T/C (dose: 12.5 mg/kg/injection, schedule: Q04DX003 (ip), vehicle: saline): 95 % of control
- T/C (dose: 25.0 mg/kg/injection, schedule: Q01DX009 (ip), vehicle: saline): 100 % of control
- T/C (dose: 25.0 mg/kg/injection, schedule: Q04DX003 (ip), vehicle: saline): 100 % of control

SMILES: COC(=O)C1CC2C(CCC3C(C)(C(=O)OC)CCCC23C)C(=O)C1(O)C(C)C (stereo unspecified)
- T/C [12]: 100 % of control
- T/C [13]: 100 % of control
- T/C [14]: 90 % of control
